One series addresses T1, human α7-nAChR (Homo sapiens, UniProt P36544).
T1 construct: expressed in transfected cells; host or cells: GH3 cells
As to the kind of experiment: functional calcium (FLIPR) assay in GH3 cells recombinantly expressing human α7-nAChR. The conditions noted are these: for EC50: GH3 cells expressing human α7-nAChR, calcium FLIPR, read-out: α7-nAChR activity Potency EC50. It counts as cell-based. The method, then:
Assay. To assess a7-nAChR activity, a functional assay was employed using GH3 cells that recombinantly expressed human α7-nAChR, 5×10^4 cells per well were seeded 72 h prior to the experiment on black 96-well plates (Costar) and incubated at 37° C. in a humidified atmosphere (5% CO2/95% air). On the day of the experiment, medium was removed by flicking the plates and replaced with 100 μl growth medium containing […] Fluo-4, (Molecular Probes) in the presence of 2.5 mM probenecid (Sigma). The cells were incubated at 37° C. in a humidified atmosphere (5% CO2/95% air) for 1 h. Plates were flicked to remove excess of Fluo-4, washed twice with Hepes-buffered salt solution (in mM: NaCl 130, KCl 5.4 CaCl2 2, MgSO4 0.8, NaH2PO4 0.9, glucose 25, Hepes 20, pH 7.4; HBS) and refilled with 100 μl of HBS containing antagonist when appropriate. The incubation in the presence of the antagonist lasted 3-5 minutes. Plates were placed in the cell plate stage of a FLIPR device (fluorescent imaging plate reader, Molecular Devices, Sunnyvale, Calif., USA).
After recording of the baseline (laser: excitation 488 nm at 1 W, CCD camera opening of 0.4 seconds) the agonists (50 μl) were added to the cell plate using the FLIPR 96-tip pipettor while simultaneously recording the fluorescence, Calcium kinetic data were normalized to the maximal fitted response induced by epibatidine, which is a full agonist at α7-nAChR, Four parameter Hill equations were fitted to the concentration-response. Values of Emax (maximal effect in % compared to the epibatidine response) and EC50 (concentration producing half the maximal effect in μM) were derived from this fit.
(§1) Assay described in: D Feuerbach et al, Neuropharmacology (2005), 48, 215-227. To assess the activity of the compound of the invention on the human neuronal nAChR α4β2, a similar functional assay is carried out using a human epithelial cell line stably expressing the human α4β2 subtype (Michelmore et al., Naunyn-Schmiedeberg's Arch. Pharmacol. (2002) 366, 235),

In series [1] the target is T2, human neuronal nAChR α4β2 (Homo sapiens, UniProt P17787+P43681).
T2 construct: expressed in transfected cells
As to the kind of experiment: similar functional assay in a human epithelial cell line stably expressing the human α4β2 subtype. It counts as cell-based. The method, then:
as §1

A short description of series [2]: Oral bioavailability and brain penetration in mice. The following applies: 30 μmol/kg p.o.; for concentration at 0.25 h / concentration at 0.5 h / concentration at 1 h / concentration at 2 h / concentration at 4 h / concentration at 8 h: plasma. The series is classed as in vivo. The procedure: Assay: Compounds were orally (30 μmol/kg) administered. Male mice (30-35 g, OF1/ICstrain) were sacrificed at indicated time points after oral administration. Trunk-blood was collected in EDTA-containing tubes and the brain was removed and immediately frozen on dry ice. To 100 μl plasma 10 μl internal standard (1.0 μmol of a compound with solubility and ionization properties similar to test compounds) was added and extracted three times with 500 μl dichloromethane. The combined extracts were then dried under a stream of nitrogen and re-dissolved in 100 μl acetonitrile/water (70% acetonitrile). Brains were weighed and homogenized in water (1:5 w/v). Two 100 μl aliquots of each homogenate 4-10 μl of internal standard (same standard as used for the plasma samples) were extracted three times with 500 μl dichlorornethane and further processed as the plasma samples. Samples were separated on Beckmann high-performance liquid chromatography equipment system with an autosampler (Gilson 233XL).
The limit of detection (LOD), defined as the lowest concentration of the extracted standard sample with a signal to noise ratio of ˜3.

For the next series, the system named is mice. Description: Social Recognition Test in mice. The series is classed as in vivo. The following applies: oral, familiar partner at 24 h vs time 0. The procedure: Assay: Social interactions between two experimental animals are influenced by their degree of familiarity: the better they know each other, the less time they spend on mutual scrutiny at each meeting. […] Memory enhancing agents (i.e. oxiracetam) facilitate learning to the extent that the previously met (familiar) partner is still remembered after 24 h, whereas in vehicle treated control animals the memory usually fades after less than 1 hour (Thor and Holloway, 1982) or after 2-3 hours.
Baseline-test: Pairs consisting of one adult and one young mouse were assigned at random to the experimental and control groups. In each pair only the adult mouse was orally treated 1 hour before the trial with either vehicle or the test compound. The duration of active contacts of the adult mouse with the young mouse was manually recorded over a period of 3 min, including the following behavioural, approach-related items: sniffing, nosing, grooming, licking, pawing and playing, anogenital exploration and orientation toward the young mouse; orientation, thereby, was defined as tip of nose of the adult mouse less than approximately 1 cm distant from the young mouse's body. […]

Another series has as its system FRDA. The following applies: cited from earlier work.
The test system of the next series is patients with FRDA. The conditions noted are these: two patients with FRDA, varenicline p.o. 0.5 mg/kg per day; cited from earlier work.
For a further series, the system named is patients with SCA3/SCA14. The conditions noted are these: two patients with SCA3/SCA14, varenicline p.o. 0.5 mg/kg per day; cited from earlier work.
The conditions of series [3]: clinical use in humans; cited from earlier work.
Where [4] appears, read: male, OF1/IC, mouse, brain, po, 30 umol/kg, 0.5 hour, read-out: Ratio Brain/plasma.
Setting [5] is: male, OF1/IC, mouse, brain, po, 30 umol/kg, 1 hour, read-out: Ratio Brain/plasma.
Where [6] appears, read: male, OF1/IC, mouse, brain, po, 30 umol/kg, 2 hour, read-out: Ratio Brain/plasma.
The mark [7] stands for this setting: male, OF1/IC, mouse, brain, po, 30 umol/kg, 4 hour, read-out: Ratio Brain/plasma.
The mark [8] stands for this setting: male, OF1/IC, mouse, brain, po, 30 umol/kg, 0.25 hour, read-out: Ratio Brain/plasma.
The mark [9] stands for this setting: male, OF1/IC, mouse, brain, po, 30 umol/kg, 8 hour, read-out: Ratio Brain/plasma.
Where [10] appears, read: male, OF1/IC, mouse, po, 0.25 hour.
Where [11] appears, read: male, OF1/IC, mouse, po, 0.5 hour.
[12] abbreviates: male, OF1/IC, mouse, po, 1 hour.
[13] abbreviates: male, OF1/IC, mouse, po, 2 hour.
The mark [14] stands for this setting: male, OF1/IC, mouse, po, 4 hour.
Setting [15] is: male, OF1/IC, mouse, po, 8 hour.

Usually IC50 stands for the concentration needed to halve the response being measured. A higher IC50 goes with weaker potency in that assay. In general, EC50 refers to the concentration giving half of the maximal effect.

T1 sequence (P36544 23-502): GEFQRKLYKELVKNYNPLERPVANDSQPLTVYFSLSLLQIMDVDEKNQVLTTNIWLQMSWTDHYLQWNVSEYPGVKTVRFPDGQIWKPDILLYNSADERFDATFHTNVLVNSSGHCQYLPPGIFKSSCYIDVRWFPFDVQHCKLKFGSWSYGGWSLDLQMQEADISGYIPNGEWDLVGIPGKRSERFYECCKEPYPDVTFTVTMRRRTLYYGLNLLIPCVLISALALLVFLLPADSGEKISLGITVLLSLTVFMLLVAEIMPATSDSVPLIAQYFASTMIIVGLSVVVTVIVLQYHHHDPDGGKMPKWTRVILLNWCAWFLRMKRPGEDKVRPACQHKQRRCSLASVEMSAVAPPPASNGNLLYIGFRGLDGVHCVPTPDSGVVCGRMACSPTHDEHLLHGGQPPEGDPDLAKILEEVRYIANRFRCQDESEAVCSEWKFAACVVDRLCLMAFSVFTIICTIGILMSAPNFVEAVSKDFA
T2 sequence (P43681 29-627 limits assumed): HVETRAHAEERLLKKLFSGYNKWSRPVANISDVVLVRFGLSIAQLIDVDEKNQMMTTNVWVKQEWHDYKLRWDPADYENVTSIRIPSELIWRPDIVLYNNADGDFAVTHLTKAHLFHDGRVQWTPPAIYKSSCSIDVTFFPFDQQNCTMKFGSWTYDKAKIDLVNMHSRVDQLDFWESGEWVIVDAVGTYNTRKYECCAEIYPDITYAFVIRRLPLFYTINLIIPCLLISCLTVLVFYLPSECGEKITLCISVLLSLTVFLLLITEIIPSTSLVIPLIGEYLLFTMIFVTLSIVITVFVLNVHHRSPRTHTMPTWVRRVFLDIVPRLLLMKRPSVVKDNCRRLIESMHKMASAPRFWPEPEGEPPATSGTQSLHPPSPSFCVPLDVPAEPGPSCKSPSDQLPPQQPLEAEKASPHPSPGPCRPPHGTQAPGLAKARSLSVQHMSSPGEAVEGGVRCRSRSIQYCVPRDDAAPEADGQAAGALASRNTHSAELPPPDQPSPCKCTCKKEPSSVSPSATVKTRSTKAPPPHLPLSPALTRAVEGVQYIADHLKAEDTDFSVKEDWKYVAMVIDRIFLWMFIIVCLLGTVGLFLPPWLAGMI
T2 sequence (P17787 26-502): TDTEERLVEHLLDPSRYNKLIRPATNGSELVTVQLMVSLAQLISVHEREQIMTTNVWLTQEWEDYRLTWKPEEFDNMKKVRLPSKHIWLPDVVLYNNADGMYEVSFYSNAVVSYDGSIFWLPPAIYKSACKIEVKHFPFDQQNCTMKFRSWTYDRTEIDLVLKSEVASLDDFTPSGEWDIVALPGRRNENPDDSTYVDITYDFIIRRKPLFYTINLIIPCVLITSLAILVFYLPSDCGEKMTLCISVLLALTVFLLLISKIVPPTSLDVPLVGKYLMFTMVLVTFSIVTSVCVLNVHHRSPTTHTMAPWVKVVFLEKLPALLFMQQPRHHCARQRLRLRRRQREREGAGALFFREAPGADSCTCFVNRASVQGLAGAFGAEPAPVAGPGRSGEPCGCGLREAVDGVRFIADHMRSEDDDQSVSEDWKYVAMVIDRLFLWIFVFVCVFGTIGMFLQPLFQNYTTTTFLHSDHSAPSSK

`C[C@H](OC(=O)N[C@@H]1CN2CCC1CC2)c1ccccc1F` [Compound A-1, (S)-(1-aza-bicyclo[2.2.2]oct-3-yl)-carbamic acid S-1-(2-fluoro-phenyl)ethylester]: the “α7-nAChR activity Efficacy compared to epibatidine (100%)” value on human α7-nAChR (Emax, maximal effect in % compared to the epibatidine response) worked out at 83%. Moreover, 23.4 µM corresponded to half-maximal inhibition in series [1] (IC50). Further, the Brain in series [2] (0.5 hour) is 706.3 ± 153.4 pmoles/g ± SD; in series [2] (1 hour), 573.7 ± 109.3 pmoles/g ± SD; in series [2] (2 hour), 191.9 ± 34.9 pmoles/g ± SD; in series [2] (4 hour), 104.6 ± 39.6 pmoles/g ± SD; in series [2] (6 hour), 40.5 ± 12.1 pmoles/g ± SD; in series [2] (24 hour), 9.1 ± 2.7 pmoles/g ± SD. Besides, the Plasma in series [2] (0.5 hour) is recorded as 634.9 ± 261.3 pmoles/ml ± SD; in series [2] (1 hour), 684.7 ± 339.6 pmoles/ml ± SD; in series [2] (2 hour), 168.2 ± 91.3 pmoles/ml ± SD; in series [2] (4 hour) it was 85.0 ± 54.3 pmoles/ml ± SD; in series [2] (6 hour) it was 29.5 ± 13.8 pmoles/ml ± SD; in series [2] (24 hour), 3.8 ± 0.6 pmoles/ml ± SD. For the same compound, the Kp at 0.5 h in series [2] (setting [4]) stood at 1.1. Further, the Kp at 1 h in series [2] (setting [5]) was determined as 0.8. Further, the Kp at 2 h in series [2] (setting [6]) came out at 1.1. Further, in series [2] (setting [7]), the Kp at 4 h was 1.2. In addition, the Kp at 6 h in series [2] (male, OF1/IC, mouse, brain, po, 30 umol/kg, 6 hour, read-out: Ratio Brain/plasma) was found to be 1.4. In addition, the Kp at 24 h in series [2] (male, OF1/IC, mouse, brain, po, 30 umol/kg, 24 hour, read-out: Ratio Brain/plasma) is 2.4. Moreover, in the series on mice (dose 3 mg/kg), the “Reduction in time scrutinizing in % ± SEM at 24 h” value is listed as 52 ± 4 % ± SEM.
On to `C[C@H]1[C@H](Oc2ccc(-c3ccc4[nH]ccc4c3)nn2)C2CCN1CC2` [Compound B-13, (2S,3R)-3-[6-(1H-indol-5-yl)-pyridazin-3-yloxy]-2-methyl-1-aza-bicyclo[2.2.2]octane], for which the EC50 was 0.013 µM on human α7-nAChR and over 100 µM in series [1]. Further, in series [1], the IC50 worked out at 4.22 µM. The Brain is reported as 1884 ± 291 pmoles/g ± SD in series [2] (0.25 hour); 2960 ± 706 pmoles/g ± SD in series [2] (0.5 hour); 2940 ± 335 pmoles/g ± SD in series [2] (1 hour); 1260 ± 172 pmoles/g ± SD in series [2] (2 hour); 379 ± 134 pmoles/g ± SD in series [2] (4 hour); 93 ± 30 pmoles/g ± SD in series [2] (8 hour). Also, the Brain in series [2] (24 hour) is on record as 13 ± 4 pmoles/g ± SD. For the same compound, in series [2] (setting [8]), the Kp at 0.25 h was 0.86. The Kp at 0.5 h in series [2] (setting [4]) stood at 1.31. Besides, the Kp at 1 h in series [2] (setting [5]) is 1.89. Besides, the Kp at 2 h in series [2] (setting [6]) was 1.07. Further, the Kp at 4 h in series [2] (setting [7]) was 0.88. Besides, the Kp at 8 h in series [2] (setting [9]) amounted to 1.17. The same compound displayed a concentration at 0.25 h in series [2] (setting [10]) of 2200 ± 397 nM. Also, the concentration at 0.5 h in series [2] (setting [11]) came to 2260 ± 419 nM. The compound further had a concentration at 1 h in series [2] (setting [12]) of 1550 ± 523 nM. Further, in series [2] (setting [13]), the concentration at 2 h was 1170 ± 252 nM. The concentration at 4 h in series [2] (setting [14]) turned out to be 429 ± 167 nM. Moreover, the concentration at 8 h in series [2] (setting [15]) amounted to 80 ± 23 nM. Also, the “Reduction in time scrutinizing in % ± SEM at 24 h” value with mice (dose 0.3 mg/kg) is given as 37 ± 7 % ± SEM.
On to `c1cc2cc(-c3cnc(O[C@H]4CCN5CCC[C@@H]4C5)nc3)ccc2[nH]1` [Compound C-1, (4S,5R)-4-[5-(1H-indol-5-yl)-pyrimidin-2-yloxy]-1-aza-bicyclo[3.3.1]nonane], for which the EC50 at human α7-nAChR is 0.024 µM; in series [1] it was over 100 µM. Moreover, the IC50 in series [1] was 9.33 µM. In addition, the Brain in series [2] (0.25 hour) was 620 ± 221 pmoles/g ± SD; in series [2] (0.5 hour), 1405 ± 539 pmoles/g ± SD; in series [2] (1 hour) it was 1458 ± 189 pmoles/g ± SD; in series [2] (2 hour) it was 1478 ± 259 pmoles/g ± SD; in series [2] (4 hour), 842 ± 187 pmoles/g ± SD; in series [2] (8 hour) it was 362 ± 62 pmoles/g ± SD. The Kp at 0.25 h in series [2] (setting [8]) was 0.39. Moreover, the Kp at 0.5 h in series [2] (setting [4]) amounted to 0.41. In series [2] (setting [5]), the Kp at 1 h stood at 1.17. Besides, the Kp at 2 h in series [2] (setting [6]) was 1.69. Also, the Kp at 4 h in series [2] (setting [7]) stood at 1.11. Besides, in series [2] (setting [9]), the Kp at 8 h amounted to 1.51. This compound also returned a concentration at 0.25 h in series [2] (setting [10]) of 1600 ± 758 nM. This compound displayed a concentration at 0.5 h in series [2] (setting [11]) of 3410 ± 956 nM. In addition, the concentration at 1 h in series [2] (setting [12]) stood at 1240 ± 583 nM. Besides, the concentration at 2 h in series [2] (setting [13]) stood at 875 ± 261 nM. For the same compound, the concentration at 4 h in series [2] (setting [14]) was 762 ± 159 nM. The concentration at 8 h in series [2] (setting [15]) worked out at 239 ± 27 nM.
For `Cc1c(O)c(=O)ccn1C` [deferiprone], the “effects in clinical trials for FRDA” value in the series on FRDA is recorded as “showed effects in clinical trials”.
On to `COC1=C(OC)C(=O)C(CCCCCCCCCCO)=C(C)C1=O` [idebenone], for which, in the series on FRDA, the “effects in clinical trials for FRDA” value is recorded as “showed effects in clinical trials”.
On to `c1cnc2cc3c(cc2n1)C1CNCC3C1` [varenicline, 7,8,9,10-tetrahydro-6,10-methano-6H-pyrazino-(2,3-h)(3)-benzazepine], for which the “ataxia improvements in patients” value in the series on patients with FRDA and with patients with SCA3/SCA14 was “showed improvements” each time. For the same compound, in series [3], the “adverse effects reported during clinical use” value was “nausea, sleep disturbance, constipation, vivid dreams, flatulence and vomiting”.
